The NIST ThermoML archive (doi:10.1016/j.fluid.2007.05.026)
Numbers after ± are expanded uncertainties.

Key:
[1] = for mass density: 101.33 kPa, Vibrating tube method; for Normal melting temperature: visual observation
[2] = refractive index (Na D-line) (dimensionless); settings: 101.33 kPa, Liquid, Standard Abbe refractometry

| mass density ([1]; 314.45 K, Liquid) [kg/m3] | Normal melting temperature ([1]; Crystal) [°C] | refractive index ([2]; 314.45 K) | mass density ([1]; 298.15 K, Crystal) [kg/m3] | Compound | mass density ([1]; 298.15 K, Liquid) [kg/m3] | Normal boiling temperature ([1]; Liquid, Manometric method) [°C] | refractive index ([2]; 298.15 K) |
| --- | --- | --- | --- | --- | --- | --- | --- |
| 1061 ± 1 | 41.30 ± 0.5 | 1.5425 ± 0.0007 |  | Oc1ccccc1 [phenol] |  |  |  |
|  |  |  |  | CC(=O)CC(C)C [4-methylpentan-2-one] | 799.8 ± 0.3 | 117.60 ± 0.1 | 1.396 ± 0.0008 |
|  | 171.40 ± 0.5 |  | 1338 ± 2 | Oc1ccc(O)cc1 [1,4-benzenediol] |  |  |  |
